target: Sodium channel protein type 9 subunit alpha (Homo sapiens, UniProt Q15858); test: EFS-FRET Assay: This screen is used to determine the effects of compounds on human Nav1.7 channels, utilizing electrical field stimulation (EFS) system in 96-well plate format on FDSS (Hamamatsu Photonics) platform. The changes of membrane potential are monitored with FRET dye pair, DiSBAC2(3) and PTS 18.
Sequence (Q15858 whole entry): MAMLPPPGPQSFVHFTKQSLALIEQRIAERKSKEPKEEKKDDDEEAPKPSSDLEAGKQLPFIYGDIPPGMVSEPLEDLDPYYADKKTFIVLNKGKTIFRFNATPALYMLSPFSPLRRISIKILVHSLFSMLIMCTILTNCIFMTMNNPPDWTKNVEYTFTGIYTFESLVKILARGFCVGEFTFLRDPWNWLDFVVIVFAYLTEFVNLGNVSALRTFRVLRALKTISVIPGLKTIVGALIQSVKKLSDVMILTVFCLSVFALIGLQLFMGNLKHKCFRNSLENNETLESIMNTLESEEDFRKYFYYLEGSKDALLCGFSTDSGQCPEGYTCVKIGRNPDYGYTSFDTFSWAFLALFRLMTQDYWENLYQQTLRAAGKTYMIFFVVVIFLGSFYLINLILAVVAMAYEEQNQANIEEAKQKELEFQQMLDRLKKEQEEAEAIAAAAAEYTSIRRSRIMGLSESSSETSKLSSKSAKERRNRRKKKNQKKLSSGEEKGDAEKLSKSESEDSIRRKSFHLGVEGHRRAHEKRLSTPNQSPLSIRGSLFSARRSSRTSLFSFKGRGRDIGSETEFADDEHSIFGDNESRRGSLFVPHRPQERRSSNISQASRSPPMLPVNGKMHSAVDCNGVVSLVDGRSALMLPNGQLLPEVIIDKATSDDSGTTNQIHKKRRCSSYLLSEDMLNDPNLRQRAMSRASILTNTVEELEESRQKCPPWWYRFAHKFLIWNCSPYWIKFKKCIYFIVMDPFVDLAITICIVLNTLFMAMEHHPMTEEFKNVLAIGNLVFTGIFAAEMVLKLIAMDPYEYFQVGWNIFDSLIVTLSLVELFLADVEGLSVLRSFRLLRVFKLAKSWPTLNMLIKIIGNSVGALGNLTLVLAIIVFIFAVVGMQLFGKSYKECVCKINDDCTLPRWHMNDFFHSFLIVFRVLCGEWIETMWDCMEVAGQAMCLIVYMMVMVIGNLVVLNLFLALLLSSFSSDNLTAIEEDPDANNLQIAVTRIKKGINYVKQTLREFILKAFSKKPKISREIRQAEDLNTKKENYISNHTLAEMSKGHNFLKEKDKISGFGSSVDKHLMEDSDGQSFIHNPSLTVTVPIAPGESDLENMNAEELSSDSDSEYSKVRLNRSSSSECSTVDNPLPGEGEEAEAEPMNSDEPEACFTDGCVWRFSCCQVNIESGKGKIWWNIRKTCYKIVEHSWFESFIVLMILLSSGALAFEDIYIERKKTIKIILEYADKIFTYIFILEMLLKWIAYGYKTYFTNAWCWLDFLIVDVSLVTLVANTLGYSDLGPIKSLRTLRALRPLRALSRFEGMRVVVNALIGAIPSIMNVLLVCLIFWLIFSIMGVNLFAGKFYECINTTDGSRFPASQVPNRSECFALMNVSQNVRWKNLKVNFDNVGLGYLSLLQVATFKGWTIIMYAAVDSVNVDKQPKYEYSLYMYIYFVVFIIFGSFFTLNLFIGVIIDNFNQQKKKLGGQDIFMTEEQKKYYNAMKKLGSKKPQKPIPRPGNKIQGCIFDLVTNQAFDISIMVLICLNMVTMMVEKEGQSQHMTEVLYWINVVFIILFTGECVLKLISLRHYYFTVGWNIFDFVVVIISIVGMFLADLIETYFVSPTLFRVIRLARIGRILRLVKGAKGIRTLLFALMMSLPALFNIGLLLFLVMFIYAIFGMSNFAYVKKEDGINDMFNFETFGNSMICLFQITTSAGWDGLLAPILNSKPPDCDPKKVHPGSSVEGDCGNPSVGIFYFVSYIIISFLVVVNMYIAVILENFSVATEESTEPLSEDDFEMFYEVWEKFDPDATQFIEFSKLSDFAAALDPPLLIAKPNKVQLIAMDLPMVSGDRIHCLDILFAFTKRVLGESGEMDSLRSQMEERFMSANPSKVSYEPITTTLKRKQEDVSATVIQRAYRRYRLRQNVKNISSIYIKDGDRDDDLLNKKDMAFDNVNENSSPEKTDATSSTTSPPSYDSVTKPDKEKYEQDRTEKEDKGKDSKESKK

IC50, < 500 nM:
O=C(NS(=O)(=O)C1CC1)c1ccc(COc2ccc(F)c(-c3ccc(OCC4CC4)nc3)c2)c(F)c1
O=C(NS(=O)(=O)C1CC1)c1ccc(COc2cccc(-c3ncc(OCC4CC4)cn3)c2)cc1
CS(=O)(=O)NC(=O)c1ccc(COc2cc(-c3ccc(OCC4CC4)nc3)cc(C3CC3)c2)cc1
Cc1cc(OCc2ccc(C(=O)NS(C)(=O)=O)cc2F)cc(-c2ccc(OCC3CC3)nc2)c1
CS(=O)(=O)NC(=O)c1ccc(COc2cc(F)cc(-c3cc(OCC(N)=O)cc(OCC4CC4)c3)c2)c(F)c1
Cc1c(OCC2CC2)ncnc1-c1cccc(OCc2ccc(C(=O)NS(C)(=O)=O)cc2)c1
O=C(NS(=O)(=O)C(F)(F)F)c1ccc(COc2cccc(-c3ccc(OCC4CC4)nc3)c2)cc1
Cc1c(OCC2CC2)ncnc1-c1cc(F)cc(OCc2ccc(C(=O)NS(C)(=O)=O)cc2)c1
CN(C)C(=O)c1cc(OCC2CC2)cc(-c2cc(F)cc(OCc3ccc(C(=O)NS(C)(=O)=O)cc3F)c2)c1
CS(=O)(=O)NC(=O)c1ccc(COc2cccc(-c3cccc(OCC4CC4)n3)c2)c(F)c1
Cc1cc(OCC2CCC2)cnc1-c1cc(F)cc(OCc2ccc(C(=O)NS(C)(=O)=O)cc2)c1
CS(=O)(=O)NC(=O)c1ccc(COc2cc(F)cc(-c3cc(OCC4CC4)cc(C(=O)N4CCOCC4)c3)c2)c(F)c1
CS(=O)(=O)NC(=O)c1ccc(COc2cc(-c3ccc(OCC4CC4)nc3)ccc2Cl)cc1
O=C(NS(=O)(=O)C(F)(F)F)c1ccc(COc2cc(F)cc(-c3ccc(OCC4CC4)nc3)c2)cc1
CS(=O)(=O)NC(=O)c1ccc(COc2cccc(-c3cc(OCC4CC4)ccn3)c2)c(F)c1
Cc1cc(-c2cccc(OCc3ccc(C(=O)NS(C)(=O)=O)cc3F)c2)cnc1OCC1CC1
CS(=O)(=O)NC(=O)c1ccc(COc2ccc(F)c(-c3cnc(OCC4CC4)cn3)c2)c(F)c1
CS(=O)(=O)NC(=O)c1ccc(COc2cc(-c3ccc(OCC4CC4)nc3)ccc2F)cc1
CC(C)S(=O)(=O)NC(=O)c1ccc(COc2cccc(-c3ccc(OCC4CC4)nc3)c2)c(F)c1
Cc1cc(OCC2CC2)cnc1-c1cc(F)cc(OCc2ccc(C(=O)NS(C)(=O)=O)cc2)c1
CCS(=O)(=O)NC(=O)c1ccc(COc2cccc(-c3ccc(OCC4CC4)nc3)c2)c(F)c1
Cc1nc(OCC2CC2)ccc1-c1cccc(OCc2ccc(C(=O)NS(C)(=O)=O)cc2F)c1
CS(=O)(=O)NC(=O)c1cc(F)c(COc2cc(F)cc(-c3ccc(OCC4CC4)nc3)c2)cc1F
CS(=O)(=O)NC(=O)c1ccc(COc2cccc(-c3cnc(OCC4CC4)cn3)c2)c(F)c1
CNC(=O)c1cc(-c2cccc(OCc3ccc(C(=O)NS(C)(=O)=O)cc3F)c2)ccc1OCC1CC1
CS(=O)(=O)NC(=O)c1ccc(COc2cccc(-c3cc(OCC4CC4)ncn3)c2)cc1
CS(=O)(=O)NC(=O)c1ccc(COc2cccc(-c3ncc(OCC4CC4)cc3F)c2)c(F)c1
O=C(NS(=O)(=O)C1CC1)c1ccc(COc2cccc(-c3ccc(OCC4CCOCC4)nc3)c2)cc1
O=C(NS(=O)(=O)c1cccs1)c1cc(Cl)c(COc2cccc(-c3ccc(OCC4CC4)nc3)c2)cc1F
CS(=O)(=O)NC(=O)c1ccc(COc2cc(-c3cccnc3)cc(-c3ccc(OCC4CC4)nc3)c2)cc1
CS(=O)(=O)NC(=O)c1ccc(COc2cc(F)cc(-c3cc(OCCO)cc(OCC4CC4)c3)c2)c(F)c1
CS(=O)(=O)NC(=O)c1ccc(COc2cccc(-c3ncc(OCC4CC4)cc3F)c2)cc1
CN(CC1CC1)c1ncc(-c2cccc(OCc3ccc(C(=O)NS(C)(=O)=O)cc3F)c2)cn1
CS(=O)(=O)NC(=O)c1cc(OC(F)F)c(COc2cccc(-c3ccc(OCC4CC4)nc3)c2)cc1F
CS(=O)(=O)NC(=O)c1ccc(COc2cc(F)cc(-c3ccnc(OCC4CC4)c3)c2)cc1
CS(=O)(=O)NC(=O)c1ccc(COc2cc(F)cc(-c3cncc(OCC4CC4)n3)c2)cc1
CCOC(=O)N1CCC(COc2ccc(-c3cccc(OCc4ccc(C(=O)NS(C)(=O)=O)cc4)c3)cn2)CC1
O=C(NS(=O)(=O)C1CC1)c1ccc(COc2cc(-c3ccc(OCC4CC4)nc3)ccn2)cc1
CS(=O)(=O)NC(=O)c1ccc(COc2cc(F)cc(-c3ccc(OCC4CC4)cn3)c2)cc1
CS(=O)(=O)NC(=O)c1ccc(COc2cccc(-c3ccc(OCC4CCOC4)nc3)c2)c(F)c1 (configuration not stated)
CS(=O)(=O)NC(=O)c1ccc(COc2ccc(F)c(-c3ccc(OCC4CC4)nc3)c2)c(F)c1
CS(=O)(=O)NC(=O)c1ccc(COc2cccc(-c3cncc(OCC4CC4)c3)c2)cc1
CS(=O)(=O)NC(=O)c1ccc(COc2cccc(-c3cc(OCC4CC4)ccn3)c2)cc1
Cc1ccc(OCc2ccc(C(=O)NS(=O)(=O)C3CC3)cc2F)cc1-c1ccc(OCC2CC2)nc1
CS(=O)(=O)NC(=O)c1ccc(COc2cc(-c3cncnc3)cc(-c3ccc(OCC4CC4)nc3)c2)cc1
CS(=O)(=O)NC(=O)c1ccc(COc2cccc(-c3ccc(OCC4CCOCC4)nc3)c2)c(F)c1
CCS(=O)(=O)NC(=O)c1ccc(COc2cc(F)cc(-c3ccc(OCC4CC4)nc3)c2)cc1
CS(=O)(=O)NC(=O)c1ccc(COc2ccc(Cl)c(-c3ccc(OCC4CC4)nc3)c2)c(F)c1
O=C(NS(=O)(=O)C1CC1)c1ccc(COc2cccc(-c3ccc(OCC4CC4)nc3)c2)c(F)c1
CS(=O)(=O)NC(=O)c1ccc(COc2cc(F)cc(-c3cccc(OCC4CC4)n3)c2)cc1
CS(=O)(=O)NC(=O)c1ccc(COc2cc(F)cc(-c3cnc(OCC4CC4)nc3)c2)cc1
CS(=O)(=O)NC(=O)c1ccc(COc2cccc(-c3cccnc3OCC3CC3)c2)cc1
Cc1c(-c2cccc(OCc3ccc(C(=O)NS(C)(=O)=O)cc3F)c2)ccnc1OCC1CC1
O=C(NS(=O)(=O)c1cccs1)c1ccc(COc2cccc(-c3ccc(OCC4CC4)nc3)c2)cc1
O=C(NS(=O)(=O)C1CC1)c1ccc(COc2cc(F)cc(-c3ccc(OCC4CC4)nc3)c2)c(F)c1
CS(=O)(=O)NC(=O)c1ccc(COc2cccc(-c3ccc(OCC4CC4)nc3)c2)nc1
CN(CCO)Cc1cc(OCC2CC2)cc(-c2cc(F)cc(OCc3ccc(C(=O)NS(C)(=O)=O)cc3F)c2)c1
CS(=O)(=O)NC(=O)c1ccc(COc2cccc(-c3ccc(OCC4CCC4)nc3)c2)cc1
COC1CN(C(=O)c2cc(OCC3CC3)cc(-c3cc(F)cc(OCc4ccc(C(=O)NS(C)(=O)=O)cc4F)c3)c2)C1
CS(=O)(=O)NC(=O)c1ccc(COc2cccc(-c3cncc(OCC4CC4)n3)c2)c(F)c1
O=C(NS(=O)(=O)c1cccs1)c1ccc(COc2cc(F)cc(-c3ccc(OCC4CC4)nc3)c2)cc1
O=C(NS(=O)(=O)C1CC1)c1ccc(COc2ccc(F)c(-c3ccc(OCC4CC4)nc3)c2)cc1
CS(=O)(=O)NC(=O)c1ccc(COc2cccc(-c3ccc(OCC4CCC(F)(F)CC4)nc3)c2)cc1
CS(=O)(=O)NC(=O)c1ccc(COc2cccc(-c3ccc(OCC4CCC4)nc3)c2)nc1
Cc1nc(OCC2CC2)ncc1-c1cccc(OCc2ccc(C(=O)NS(C)(=O)=O)cc2F)c1
CS(=O)(=O)NC(=O)c1cc(C2CC2)c(COc2cccc(-c3ccc(OCC4CC4)nc3)c2)cc1F
Cc1c(OCC2CC2)ccnc1-c1cccc(OCc2ccc(C(=O)NS(C)(=O)=O)cc2F)c1
CS(=O)(=O)NC(=O)c1cc(Cl)c(COc2cccc(-c3ccc(OCC4CC4)nc3)c2)cc1F
O=C(NS(=O)(=O)C1CC1)c1ccc(COc2cccc(-c3cnc(OCC4CC4)cn3)c2)cc1
CS(=O)(=O)NC(=O)c1ccc(COc2cccc(-c3ccc(OCC4CCC4)nc3CO)c2)cc1
Cc1nc(OCC2CC2)ccc1-c1cc(F)cc(OCc2ccc(C(=O)NS(C)(=O)=O)cc2)c1
CS(=O)(=O)NC(=O)c1ccc(COc2cccc(-c3ccc(OCC4CC4)nc3)n2)cc1
Cc1c(OCC2CC2)ccnc1-c1cc(F)cc(OCc2ccc(C(=O)NS(C)(=O)=O)cc2)c1
CS(=O)(=O)NC(=O)c1ccc(COc2cccc(-c3ccn(CC4CC4)n3)c2)c(F)c1
CN(C)C(=O)COc1cc(OCC2CC2)cc(-c2cc(F)cc(OCc3ccc(C(=O)NS(C)(=O)=O)cc3F)c2)c1
CS(=O)(=O)NC(=O)c1ccc(COc2cccc(-c3cnc(OCC4CCC4)c(CO)c3)c2)c(F)c1
CS(=O)(=O)NC(=O)c1ccc(COc2cc(F)cc(-c3ccc(OCC4CC4)nc3)c2)c(F)c1
CS(=O)(=O)NC(=O)c1ccc(COc2ccc(F)c(-c3cnc(OCC4CC4)c(Cl)c3)c2)c(F)c1
CS(=O)(=O)NC(=O)c1ccc(COc2cccc(-c3ccc(OCC4CC4)nc3)c2F)cc1
Cc1cc(OCC2CC2)cnc1-c1cccc(OCc2ccc(C(=O)NS(C)(=O)=O)cc2F)c1
O=C(NS(=O)(=O)c1nccs1)c1ccc(COc2cccc(-c3ccc(OCC4CC4)nc3)c2)cc1
Cc1nc(OCC2CC2)ccc1-c1cc(OCc2ccc(C(=O)NS(C)(=O)=O)cc2F)ccc1F
O=C(NS(=O)(=O)C1CC1)c1cc(Cl)c(COc2cccc(-c3ccc(OCC4CC4)nc3)c2)cc1F
COCCOc1cc(OCC2CC2)cc(-c2cc(F)cc(OCc3ccc(C(=O)NS(C)(=O)=O)cc3F)c2)c1
CS(=O)(=O)NC(=O)c1ccc(COc2cccc(-c3cc(OCC4CC4)ncn3)c2)c(F)c1
CS(=O)(=O)NC(=O)c1ccc(COc2cc(F)cc(-c3ncc(OCC4CCC4)cn3)c2)cc1
CS(=O)(=O)NC(=O)c1ccc(COc2cc(F)cc(-c3cc(OCC4CC4)ccn3)c2)cc1
